Measured values reported in patent US11834432B2, “Substituted amino six-membered nitric heterocyclic ring compound and preparation and use thereof” (SHANGHAI INSTITUTE OF MATERIA MEDICA, CHINESE ACADEMY OF …, priority 2016, dated 2023).

Experiments:
Experiment in all cases: In vitro tyrosine kinase inhibition screening (ELISA)
Format in all cases: biochemical
Conditions in all cases: 1 h
ErbB4 = ErbB4 (Homo sapiens (Human), UniProt Q15303)
Description: (§1) 4. In Vitro Screening Test on Tyrosine Kinase Activity Inhibition Screening method: Enzyme-linked immunosorbent assay (ELISA) tyrosine kinase: Enzyme spectrum Time of action: 1 h

RET = RET (Homo sapiens (Human), UniProt P07949)
Description: as §1

c-Src = c-Src (Homo sapiens (Human), UniProt P12931)
Description: as §1

PDGFR-β = PDGFR-β (Homo sapiens (Human), UniProt P09619)
Description: as §1

c-Met = c-Met (Homo sapiens (Human), UniProt P08581)
Description: as §1

EPH-A2 = EPH-A2 (Homo sapiens (Human), UniProt P29317)
Description: as §1

VEGFR-1 = VEGFR-1 (Homo sapiens (Human), UniProt P17948)
Description: as §1

ErbB2 = ErbB2 (Homo sapiens (Human), UniProt P04626)
Description: as §1

IGF1R = IGF1R (Homo sapiens (Human), UniProt P08069)
Description: as §1

PDGFR-α = PDGFR-α (Homo sapiens (Human), UniProt P16234)
Description: as §1

EGFR = EGFR (Homo sapiens (Human), UniProt P00533)
Description: as §1

VEGFR-2 = VEGFR-2 (Homo sapiens (Human), UniProt P35968)
Description: as §1

Chain of VEGFR-1 (P17948 27-1338, species assumed): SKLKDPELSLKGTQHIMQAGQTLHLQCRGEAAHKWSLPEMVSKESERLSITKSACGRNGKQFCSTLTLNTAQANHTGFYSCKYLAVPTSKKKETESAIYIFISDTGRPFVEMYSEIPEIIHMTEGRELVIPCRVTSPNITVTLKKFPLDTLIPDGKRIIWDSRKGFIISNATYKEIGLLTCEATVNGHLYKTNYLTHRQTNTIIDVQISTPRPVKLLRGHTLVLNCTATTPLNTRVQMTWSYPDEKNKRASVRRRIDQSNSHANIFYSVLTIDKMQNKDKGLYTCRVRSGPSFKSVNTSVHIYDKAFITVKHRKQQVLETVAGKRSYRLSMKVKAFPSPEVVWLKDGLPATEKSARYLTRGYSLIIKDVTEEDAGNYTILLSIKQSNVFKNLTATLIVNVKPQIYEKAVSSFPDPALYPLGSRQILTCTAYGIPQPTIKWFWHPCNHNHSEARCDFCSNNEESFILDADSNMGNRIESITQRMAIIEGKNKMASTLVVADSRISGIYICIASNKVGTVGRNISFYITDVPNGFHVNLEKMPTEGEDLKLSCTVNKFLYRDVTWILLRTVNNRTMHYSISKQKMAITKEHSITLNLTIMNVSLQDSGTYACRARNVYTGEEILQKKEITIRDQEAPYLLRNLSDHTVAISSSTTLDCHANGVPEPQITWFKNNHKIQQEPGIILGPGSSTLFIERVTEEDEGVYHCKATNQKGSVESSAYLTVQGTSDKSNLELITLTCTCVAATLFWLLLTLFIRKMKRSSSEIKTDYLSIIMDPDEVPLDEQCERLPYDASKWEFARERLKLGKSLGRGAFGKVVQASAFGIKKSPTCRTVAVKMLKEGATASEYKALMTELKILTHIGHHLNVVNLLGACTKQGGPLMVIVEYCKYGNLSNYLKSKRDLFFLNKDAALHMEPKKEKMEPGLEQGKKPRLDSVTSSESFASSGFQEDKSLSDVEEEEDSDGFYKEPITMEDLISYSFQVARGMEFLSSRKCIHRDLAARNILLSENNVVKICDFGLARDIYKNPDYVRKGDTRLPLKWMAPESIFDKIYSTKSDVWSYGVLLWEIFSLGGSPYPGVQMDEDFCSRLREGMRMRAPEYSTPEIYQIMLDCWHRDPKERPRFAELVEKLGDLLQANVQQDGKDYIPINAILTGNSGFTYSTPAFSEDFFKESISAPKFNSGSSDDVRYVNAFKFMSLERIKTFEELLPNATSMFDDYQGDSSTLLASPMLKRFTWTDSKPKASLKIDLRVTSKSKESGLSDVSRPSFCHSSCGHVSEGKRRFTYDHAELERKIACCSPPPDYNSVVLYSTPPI
Chain of PDGFR-α (P16234 24-1089): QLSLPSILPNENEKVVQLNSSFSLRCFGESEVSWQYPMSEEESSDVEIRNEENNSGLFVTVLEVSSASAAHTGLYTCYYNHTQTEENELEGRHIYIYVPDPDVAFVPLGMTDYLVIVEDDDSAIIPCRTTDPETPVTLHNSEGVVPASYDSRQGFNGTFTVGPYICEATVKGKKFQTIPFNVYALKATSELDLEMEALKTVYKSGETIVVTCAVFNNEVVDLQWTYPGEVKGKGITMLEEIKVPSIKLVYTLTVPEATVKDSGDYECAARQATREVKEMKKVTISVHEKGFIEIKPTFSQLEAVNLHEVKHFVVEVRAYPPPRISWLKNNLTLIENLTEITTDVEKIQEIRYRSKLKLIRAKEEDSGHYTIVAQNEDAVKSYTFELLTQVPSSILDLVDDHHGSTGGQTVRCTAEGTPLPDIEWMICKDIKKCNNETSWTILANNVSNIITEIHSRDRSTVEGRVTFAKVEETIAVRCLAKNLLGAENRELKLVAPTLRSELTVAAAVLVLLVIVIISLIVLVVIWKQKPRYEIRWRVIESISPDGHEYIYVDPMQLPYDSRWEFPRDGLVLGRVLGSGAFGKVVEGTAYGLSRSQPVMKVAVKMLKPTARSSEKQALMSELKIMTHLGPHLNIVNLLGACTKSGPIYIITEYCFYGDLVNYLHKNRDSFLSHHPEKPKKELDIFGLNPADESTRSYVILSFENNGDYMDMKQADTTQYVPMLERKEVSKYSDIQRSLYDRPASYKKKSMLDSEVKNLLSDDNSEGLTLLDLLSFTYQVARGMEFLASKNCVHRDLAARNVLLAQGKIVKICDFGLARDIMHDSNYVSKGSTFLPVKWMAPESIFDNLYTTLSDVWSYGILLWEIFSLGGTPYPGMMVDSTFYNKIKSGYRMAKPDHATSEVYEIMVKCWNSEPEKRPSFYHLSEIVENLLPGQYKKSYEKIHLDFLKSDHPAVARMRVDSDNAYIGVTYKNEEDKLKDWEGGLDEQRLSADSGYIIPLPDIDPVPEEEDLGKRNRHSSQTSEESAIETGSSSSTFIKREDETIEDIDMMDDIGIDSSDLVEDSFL
Chain of IGF1R (P08069 31-1367, species assumed): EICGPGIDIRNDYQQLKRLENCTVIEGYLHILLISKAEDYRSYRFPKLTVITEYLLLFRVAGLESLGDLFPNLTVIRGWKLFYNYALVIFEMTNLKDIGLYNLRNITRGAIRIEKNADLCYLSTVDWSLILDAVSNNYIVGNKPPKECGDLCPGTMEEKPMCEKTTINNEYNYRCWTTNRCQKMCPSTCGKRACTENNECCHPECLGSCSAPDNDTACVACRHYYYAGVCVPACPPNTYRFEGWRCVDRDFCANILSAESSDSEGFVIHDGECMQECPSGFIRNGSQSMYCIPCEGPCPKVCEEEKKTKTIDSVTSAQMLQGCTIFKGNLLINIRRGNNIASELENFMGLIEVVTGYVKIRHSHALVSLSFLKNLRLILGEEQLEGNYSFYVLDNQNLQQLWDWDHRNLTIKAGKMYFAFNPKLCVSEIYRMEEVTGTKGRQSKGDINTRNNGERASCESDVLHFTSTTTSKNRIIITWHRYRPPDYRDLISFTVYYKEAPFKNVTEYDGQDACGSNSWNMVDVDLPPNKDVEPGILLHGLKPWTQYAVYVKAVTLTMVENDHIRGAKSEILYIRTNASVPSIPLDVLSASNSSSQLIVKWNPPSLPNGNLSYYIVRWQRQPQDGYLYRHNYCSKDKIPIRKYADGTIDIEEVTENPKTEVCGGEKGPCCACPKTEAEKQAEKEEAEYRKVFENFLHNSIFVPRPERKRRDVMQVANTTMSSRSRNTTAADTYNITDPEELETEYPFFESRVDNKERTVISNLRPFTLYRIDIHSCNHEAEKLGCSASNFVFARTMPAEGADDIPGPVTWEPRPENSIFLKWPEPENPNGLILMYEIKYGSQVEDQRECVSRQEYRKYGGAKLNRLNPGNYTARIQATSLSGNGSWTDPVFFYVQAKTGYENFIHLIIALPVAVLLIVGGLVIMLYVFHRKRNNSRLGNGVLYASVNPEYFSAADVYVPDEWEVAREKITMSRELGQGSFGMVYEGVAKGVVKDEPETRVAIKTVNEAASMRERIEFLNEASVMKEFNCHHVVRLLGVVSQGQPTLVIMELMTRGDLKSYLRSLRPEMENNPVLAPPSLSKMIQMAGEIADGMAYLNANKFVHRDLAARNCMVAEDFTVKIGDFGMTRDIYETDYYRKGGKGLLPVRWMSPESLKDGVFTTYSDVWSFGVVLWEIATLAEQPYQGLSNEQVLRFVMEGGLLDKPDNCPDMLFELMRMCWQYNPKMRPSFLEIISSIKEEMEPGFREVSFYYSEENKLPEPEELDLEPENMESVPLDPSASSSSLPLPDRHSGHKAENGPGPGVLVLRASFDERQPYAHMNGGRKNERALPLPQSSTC
Chain of RET (P07949 29-1114, species assumed): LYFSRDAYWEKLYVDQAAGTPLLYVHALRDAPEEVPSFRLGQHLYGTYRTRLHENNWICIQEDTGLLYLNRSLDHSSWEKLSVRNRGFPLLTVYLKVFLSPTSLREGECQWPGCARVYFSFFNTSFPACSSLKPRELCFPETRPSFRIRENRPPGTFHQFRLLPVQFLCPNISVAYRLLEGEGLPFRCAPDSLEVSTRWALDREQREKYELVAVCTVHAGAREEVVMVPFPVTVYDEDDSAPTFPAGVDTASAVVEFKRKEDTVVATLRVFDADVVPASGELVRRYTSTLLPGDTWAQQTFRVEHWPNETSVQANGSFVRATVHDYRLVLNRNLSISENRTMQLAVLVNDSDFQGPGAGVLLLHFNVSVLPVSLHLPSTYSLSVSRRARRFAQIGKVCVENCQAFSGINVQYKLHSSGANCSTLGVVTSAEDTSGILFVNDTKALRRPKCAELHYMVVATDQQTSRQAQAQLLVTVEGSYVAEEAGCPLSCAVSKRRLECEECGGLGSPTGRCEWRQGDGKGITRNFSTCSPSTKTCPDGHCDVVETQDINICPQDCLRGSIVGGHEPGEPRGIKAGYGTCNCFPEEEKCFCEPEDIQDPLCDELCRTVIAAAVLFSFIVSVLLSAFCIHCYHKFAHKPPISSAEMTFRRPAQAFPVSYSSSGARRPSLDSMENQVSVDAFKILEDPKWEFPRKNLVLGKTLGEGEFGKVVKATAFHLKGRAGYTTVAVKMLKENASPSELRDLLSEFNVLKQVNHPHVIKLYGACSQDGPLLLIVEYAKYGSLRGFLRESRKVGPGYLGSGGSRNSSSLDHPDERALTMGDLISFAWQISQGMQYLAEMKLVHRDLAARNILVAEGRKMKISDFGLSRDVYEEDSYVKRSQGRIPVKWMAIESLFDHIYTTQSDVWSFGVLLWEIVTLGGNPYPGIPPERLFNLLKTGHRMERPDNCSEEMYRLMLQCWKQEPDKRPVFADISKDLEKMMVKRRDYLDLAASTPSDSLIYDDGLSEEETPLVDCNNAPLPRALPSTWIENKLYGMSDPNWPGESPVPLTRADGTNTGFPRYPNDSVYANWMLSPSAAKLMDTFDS

CNC(=O)c1cccc2cc(Oc3ccnc(NC(=O)c4ccc(N5C[C@@H](C)N[C@@H](C)C5)cc4)c3)ccc12 [Compound S10]
Inhibition ratio (%) ErbB4 (ErbB4; 10 nM): 2.0%
Inhibition ratio (%) ErbB4 (ErbB4; 1000 nM): 7.0%
Inhibition ratio (%) RET (RET; 10 nM): 13.2%
Inhibition ratio (%) RET (RET; 1000 nM): 90.5%
Inhibition ratio (%) c-Src (c-Src; 10 nM): 20.3%
Inhibition ratio (%) c-Src (c-Src; 1000 nM): 43.6%
Inhibition ratio (%) PDGFR-β (PDGFR-β; 10 nM): 56.4%
Inhibition ratio (%) PDGFR-β (PDGFR-β; 1000 nM): 87.8%
Inhibition ratio (%) c-Met (c-Met; 10 nM): 11.2%
Inhibition ratio (%) c-Met (c-Met; 1000 nM): 29.5%
Inhibition ratio (%) EPH-A2 (EPH-A2; 10 nM): 4.2%
Inhibition ratio (%) EPH-A2 (EPH-A2; 1000 nM): 7.7%
Inhibition ratio (%) VEGFR-1 (VEGFR-1; 10 nM): 75.6%
Inhibition ratio (%) VEGFR-1 (VEGFR-1; 1000 nM): 100.0%
Inhibition ratio (%) ErbB2 (ErbB2; 10 nM): 17.4%
Inhibition ratio (%) ErbB2 (ErbB2; 1000 nM): 22.2%
Inhibition ratio (%) IGF1R (IGF1R; 10 nM): 23.5%
Inhibition ratio (%) IGF1R (IGF1R; 1000 nM): 11.0%
Inhibition ratio (%) PDGFR-α (PDGFR-α; 10 nM): 50.2%
Inhibition ratio (%) PDGFR-α (PDGFR-α; 1000 nM): 87.1%
Inhibition ratio (%) EGFR (EGFR; 10 nM): 9.6%
Inhibition ratio (%) EGFR (EGFR; 1000 nM): 11.3%
Inhibition ratio (%) VEGFR-2 (VEGFR-2; 10 nM): 90.4%
Inhibition ratio (%) VEGFR-2 (VEGFR-2; 1000 nM): 98.7%
